Measured values: the NIST ThermoML archive (doi:10.1016/j.tca.2017.08.004)

Tests used:
[1] = Molar enthalpy of transition or fusion; conditions: Crystal; DSC
[2] = Crystal; for vapor or sublimation pressure: Transpiration method

Fc1ccc(N=C2[Se]CC3CCCN2C3)cc1 (stereo unspecified) [N-(4-fluorophenyl)-3-selena-1-azabicyclo[3.3.1]nonan-2-imine]
Conditions | Molar enthalpy of transition or fusion [kcal/mol]
[1] | 5.23

[2]
Conditions | Normal melting temperature [°C] | vapor or sublimation pressure [kPa]
344.15 K | – | 6.71e-05
346.15 K | – | 8.23e-05
348.15 K | – | 0.0001009
350.15 K | – | 0.0001254
352.15 K | – | 0.0001539
354.15 K | – | 0.0001821
357.15 K | – | 0.0002441
359.15 K | – | 0.0002956
360.15 K | – | 0.0003273
361.15 K | – | 0.00036
362.15 K | – | 0.0003964
363.15 K | – | 0.0004316
364.15 K | – | 0.0004719
365.15 K | – | 0.0005306
DTA | 103.1 | –

CC(C)c1ccc(N=C2SCC3CCCN2C3)cc1 (stereo unspecified)
[2]
Conditions | vapor or sublimation pressure [kPa]
308.15 K | 7.9e-06
310.15 K | 1.01e-05
311.15 K | 1.19e-05
313.15 K | 1.61e-05
314.15 K | 1.86e-05
315.15 K | 2.13e-05
316.15 K | 2.3e-05
317.15 K | 2.74e-05
318.15 K | 3.07e-05
319.15 K | 3.29e-05
320.15 K | 3.89e-05
322.15 K | 4.8e-05
323.15 K | 5.57e-05

CC(=O)c1ccc(N=C2SCC3CCCN2C3)cc1 (stereo unspecified)
[2]
Conditions | vapor or sublimation pressure [kPa]
370.15 K | 1.72e-05
372.15 K | 2.17e-05
373.15 K | 2.52e-05
374.15 K | 2.65e-05
375.15 K | 3.08e-05
377.15 K | 3.73e-05
379.15 K | 4.55e-05
381.15 K | 5.67e-05
383.15 K | 6.72e-05
385.15 K | 8.05e-05
387.15 K | 9.63e-05
389.15 K | 0.0001225
390.15 K | 0.0001287
391.15 K | 0.0001437
392.15 K | 0.0001637

N#Cc1ccc(N=C2SCC3CCCN2C3)cc1 (stereo unspecified)
[2]
Conditions | vapor or sublimation pressure [kPa]
341.15 K | 4.41e-05
343.15 K | 6.35e-05
345.15 K | 8.28e-05
347.15 K | 0.0001196
349.15 K | 0.0001553
351.15 K | 0.0002074
353.15 K | 0.0002772
354.15 K | 0.0002989
356.15 K | 0.0004234
358.15 K | 0.000541
360.15 K | 0.0007001
361.15 K | 0.0008286
